Source: ChEMBL document CHEMBL1148997, “Stereochemical considerations in relation to the pharmacological activity of Pterotaberna alkaloids” (J Nat Prod, 1985)
Active and inactive are the calls of the source. No cut-off for these calls is given here.

Tests used:
Ileum [1] = experiment: Antihistaminic effect in guinea pig ileum assessed as inhibition of histamine-induced contraction; type: functional, Cavia porcellus
Ileum [2] = experiment: Anticholinergic effect in guinea pig ileum assessed as inhibition of acetylcholine-induced contraction at 1 uM; type: functional, tissue-based; conditions: Cavia porcellus
Ileum [3] = experiment: Anticholinergic effect in guinea pig ileum assessed as inhibition of acetylcholine-induced contraction at 3.4 uM; type: functional, tissue-based; conditions: Cavia porcellus
Ileum [4] = experiment: Anticholinergic effect in guinea pig ileum assessed as inhibition of acetylcholine-induced contraction; type: functional, Cavia porcellus
Ileum [5] = experiment: Inhibition of electrically-induced twitch contraction in guinea pig ileum at 1 uM; type: functional, tissue-based; conditions: Cavia porcellus
Ileum [6] = experiment: Inhibition of electrically-induced twitch contraction in guinea pig ileum at 3.4 uM; type: functional, tissue-based; conditions: Cavia porcellus
Ileum [7] = experiment: Inhibition of electrically-induced twitch contraction in guinea pig ileum at 3.4 uM preincubated for 15 mins before addition of naloxone in presence of naloxone; type: functional, tissue-based; conditions: Cavia porcellus
Ileum [8] = experiment: Antihistaminic effect in guinea pig ileum assessed as inhibition of histamine-induced contraction at 34 uM; type: functional, tissue-based; conditions: Cavia porcellus
Intestine = experiment: Anticholinergic effect in rat intestine assessed as inhibition of acetylcholine-induced contraction; type: functional, tissue-based; conditions: read-out: pA2 (converted)
Ileum [9] = experiment: Inhibition of electrically-induced twitch contraction in guinea pig ileum at 3.2 uM; type: functional, tissue-based; conditions: Cavia porcellus
Ileum [10] = experiment: Antihistaminic effect in guinea pig ileum assessed as inhibition of histamine-induced contraction by Schild plot; type: functional, tissue-based; conditions: Cavia porcellus, read-out: pA2 (converted)
Ileum [11] = experiment: Inhibition of electrically-induced twitch contraction in guinea pig ileum at 1 ug/ml after 15 mins; type: functional; conditions: Cavia porcellus, 0.25 h

SMILES: C/C=C1/CN(C)C[C@H]2Cc3c([nH]c4ccccc34)C(=O)C[C@@H]12 [METHUENINE]
- pD2 (Ileum [1]): 5.13
- Activity (Ileum [2]): Active
- Activity (Ileum [3]): Active
- pD2 (Ileum [4]): 5.1
- Activity (Ileum [5]): Active
- Activity (Ileum [6]): Active
- Activity (Ileum [7]): Active
- Activity (Ileum [8]): Active

SMILES: COc1ccc(Cc2nccc3cc(OC)c(OC)cc23)cc1OC [PAPAVERINE]
- pD2 (Ileum [4]): 5.08
- Kb (Intestine): 15.8 µM

SMILES: C/C=C1/CN(C)C[C@H]2C(=O)c3c([nH]c4ccccc34)C(=O)C[C@@H]12
- Activity (Ileum [9]): inactive

SMILES: C/C=C1/CN(C)C[C@@H]2Cc3c([nH]c4ccccc34)C(=O)C[C@@H]12
- Kb (Ileum [10]): 0.282 µM
- Activity (Ileum [4]; Cavia porcellus): inactive
- Activity (Ileum [6]): Active
- inhibition at 1 µg/mL (Ileum [11]): 20%

SMILES: C/C=C1/C[N+](C)([O-])C[C@H]2Cc3c([nH]c4ccccc34)C(=O)C[C@@H]12 (stereo partly specified)
- Activity (Ileum [9]): inactive
